Laboratory results as given in patent publication US12662451B2, “Chemical compounds and uses thereof” (GLAXOSMITHKLINE INTELLECTUAL PROPERTY (NO.4) LIMITED, priority 2023, dated 2026).
Structures can show the parent of a compound that is named as a salt. Where two headings read alike, the source gives them in different places.

Experiments:
[1] = Cell culture media unbound percentage and stability by rapid equilibrium dialysis (Example C); type: in vitro ADME; conditions: bovine, cell assay medium (RPMI-1640 with 10% fetal bovine serum), pH 7.4, rapid equilibrium dialysis, 4 hours at 37° C., read-out: Cell Culture Media Binding (% unbound)
In short: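 Percent unbound in cell assay medium came from the LC-MS/MS receiver:donor peak area ratio, with stability taken as the 240 min over 0 min ratio. Set-up: 1 μM nominal compound in medium dialysed against pH 7.4 PBS (100 mM phosphate, 150 mM NaCl), 4 h, 37° C, shaken, in triplicate.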

[2] = system: SW48 human colorectal cancer cells (MSI-H cancer cells); experiment: SW48 cell viability, CellTiter-Glo, 120 hours (Example B); conditions: Homo sapiens
[3] = biological target: T1, recombinant full-length WRN protein (1-1432) (Homo sapiens, UniProt Q14191); experiment: WRN unwinding activity, fluorogenic 384-well assay (Example A); type: biochemical; conditions: WRN unwinding activity, 4 hr; Table 2; read-out: 4 hr UNW pIC50 (converted)
T1 construct: recombinant full-length WRN protein (1-1432)
T1 sequence (Q14191 whole entry): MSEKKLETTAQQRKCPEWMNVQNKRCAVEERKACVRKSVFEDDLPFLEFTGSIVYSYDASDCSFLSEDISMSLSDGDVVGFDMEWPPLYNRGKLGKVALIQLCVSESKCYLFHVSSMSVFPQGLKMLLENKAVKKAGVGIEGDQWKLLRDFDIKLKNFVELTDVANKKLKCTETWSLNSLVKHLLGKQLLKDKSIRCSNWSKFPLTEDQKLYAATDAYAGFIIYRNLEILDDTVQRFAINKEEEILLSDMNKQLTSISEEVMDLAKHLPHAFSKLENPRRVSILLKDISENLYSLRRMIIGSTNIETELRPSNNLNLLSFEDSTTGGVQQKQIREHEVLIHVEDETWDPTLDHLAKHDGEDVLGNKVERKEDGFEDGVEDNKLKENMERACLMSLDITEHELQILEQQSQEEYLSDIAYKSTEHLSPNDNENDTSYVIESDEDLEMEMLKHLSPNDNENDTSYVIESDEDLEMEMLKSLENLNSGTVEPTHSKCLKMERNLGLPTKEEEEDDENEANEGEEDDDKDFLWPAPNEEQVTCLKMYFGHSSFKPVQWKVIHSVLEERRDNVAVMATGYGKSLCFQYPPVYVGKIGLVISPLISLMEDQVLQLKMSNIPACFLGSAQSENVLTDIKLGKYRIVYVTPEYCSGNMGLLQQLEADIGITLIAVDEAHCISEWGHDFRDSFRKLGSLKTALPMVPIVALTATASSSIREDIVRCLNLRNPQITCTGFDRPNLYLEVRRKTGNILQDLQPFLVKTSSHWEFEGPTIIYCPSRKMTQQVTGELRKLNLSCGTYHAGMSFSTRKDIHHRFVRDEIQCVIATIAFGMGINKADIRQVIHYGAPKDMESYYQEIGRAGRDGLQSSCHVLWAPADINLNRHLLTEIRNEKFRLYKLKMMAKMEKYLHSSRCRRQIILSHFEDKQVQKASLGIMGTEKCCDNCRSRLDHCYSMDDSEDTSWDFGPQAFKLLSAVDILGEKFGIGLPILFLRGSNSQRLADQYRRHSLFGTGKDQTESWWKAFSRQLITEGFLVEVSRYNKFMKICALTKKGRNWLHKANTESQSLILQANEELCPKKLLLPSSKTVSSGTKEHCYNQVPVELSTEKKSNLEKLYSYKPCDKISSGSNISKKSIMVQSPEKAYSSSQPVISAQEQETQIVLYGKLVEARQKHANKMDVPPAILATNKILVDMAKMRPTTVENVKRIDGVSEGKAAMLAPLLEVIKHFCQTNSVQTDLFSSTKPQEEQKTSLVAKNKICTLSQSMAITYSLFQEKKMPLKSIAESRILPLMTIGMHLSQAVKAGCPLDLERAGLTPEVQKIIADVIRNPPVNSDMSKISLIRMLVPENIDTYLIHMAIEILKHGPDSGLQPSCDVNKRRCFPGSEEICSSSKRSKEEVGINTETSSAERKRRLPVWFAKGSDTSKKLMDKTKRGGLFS
In short: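 Read-out is end-point unwinding of a fluorophore/quencher duplex (ex 525, em 598 nm) after 60 min with 200 μM ATP and 12 nM DNA (2× stocks), EDTA stop. Compound first sat 4 h with 200 pM WRN (2× stock) in pH 8.0 Tris buffer; four-parameter fit gives pIC50.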

[4] = system: SW48 human colorectal cancer cells; experiment: Calculated free drug potency in SW48 cell assay, corrected with media free fraction (Example C); type: cell-based; conditions: Homo sapiens, SW48, SW48 pCC50 corrected with measured free fraction in cell assay media
In short: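 Free drug potency derives from correcting SW48 assay concentrations with the unbound fraction in medium. That fraction came from RED against pH 7.4 PBS, 1 μM nominal compound, 4 h at 37 °C, quantified by LC-MS/MS peak area ratios at T=240 versus T=0 min.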

[5] = SW48, 120 h, read-out: SW48 pCC50, SW48 cell viability, 120 hours incubation (converted), Table 2
[6] = SW48, read-out: SW48 pCC50, measured potency from Example B, as repeated in Table 3 (converted)

SMILES | fraction unbound at 4 h, 1 µM [1] | IC50 [3] [nM] | CC50 [2, 5] [nM] | CC50 [2, 6] [nM] | CC50 [4] [nM]
Cc1nc2cc(S(=O)(=O)N(C)c3ccc([C@H]4C[C@@H](N(C)C)C[C@@H](C(=O)Nc5ccc(C(F)(F)F)cc5F)[C@@H]4C(=O)O)cc3)ccc2n1C (stereo in doubt) [Example 251, rel-(1R,2R,4R,6S)-4-(dimethylamino)-2-((2-fluoro-4-(trifluoromethyl)phenyl)carbamoyl)-6-(4-((N,1,2-trimethyl-1H-benzo[d]imidazole)-5-sulfonamido)phenyl)cyclohexane-1-carboxylic acid] | 0.274 | 1 | 501 | 501 | 138
Cc1nc2cc(S(=O)(=O)N(C)c3ccc([C@H]4C[C@@H](N5CC[C@@H](F)C5)C[C@@H](C(=O)Nc5ccc(C(F)(F)F)cc5F)[C@@H]4C(=O)O)cc3)ccc2n1C (stereo in doubt) [Example 382, rel-(1R*,2R*,4R*,6S*)-2-((2-fluoro-4-(trifluoromethyl)phenyl)carbamoyl)-4-((R)-3-fluoropyrrolidin-1-yl)-6-(4-((N,1,2-trimethyl-1H-benzo[d]imidazole)-5-sulfonamido)phenyl)cyclohexane-1-carboxylic acid] | 0.136 | 1.58 | 63.1 | 63.1 | 8.51
CN(c1ccc([C@H]2CCC[C@@H](C(=O)Nc3ccc(C(F)(F)F)cc3F)[C@@H]2C(=O)O)cc1)S(C)(=O)=O [Example 285, (1R,2R,6S)-2-((2-fluoro-4-(trifluoromethyl)phenyl)carbamoyl)-6-(4-(N-methylmethylsulfonamido)phenyl) cyclohexane-1-carboxylic acid] | 0.549 | 31.6 | 6310 | 6310 | 3470
Cc1nc2cc(S(=O)(=O)N(C)c3ccc([C@H]4C[C@@H](NCC(F)(F)F)C[C@@H](C(=O)Nc5ccc(C(F)(F)F)cc5F)[C@@H]4C(=O)O)cc3)ccc2n1C (stereo in doubt) [Example 334, rel-(1R,2R,4R,6S)-2-((2-fluoro-4-(trifluoromethyl)phenyl)carbamoyl)-4-((2,2,2-trifluoroethyl)amino)-6-(4-((N,1,2-trimethyl-1H-benzo[d]imidazole)-5-sulfonamido)phenyl)cyclohexane-1-carboxylic acid] | 0.183 | 1.58 | 251 | 251 | 45.7
Cc1nc2cc(S(=O)(=O)N(C)c3ccc([C@H]4C[C@@H](O[C@@H]5CCOC5)C[C@@H](C(=O)Nc5ccc(C(F)(F)F)cc5F)[C@@H]4C(=O)O)cc3)ccc2n1C (relative stereo) [Example 321, (1R*,2R*,4R*,6S*)-2-((2-fluoro-4-(trifluoromethyl)phenyl)carbamoyl)-4-(((R)-tetrahydrofuran-3-yl)oxy)-6-(4-((N,1,2-trimethyl-1H-benzo[d]imidazole)-5-sulfonamido)phenyl)cyclohexane-1-carboxylic acid] | 0.16 | 1.58 | 200 | 200 | 31.6
Cc1nc2cc(S(=O)(=O)N(C)c3ccc([C@H]4C[C@@H](N5CCCC(F)(F)C5)C[C@@H](C(=O)Nc5ccc(C(F)(F)F)cc5F)[C@@H]4C(=O)O)cc3)ccc2n1C (relative stereo) [Example 353, rel-(1R,2R,4R,6S)-4-(3,3-difluoropiperidin-1-yl)-2-((2-fluoro-4-(trifluoromethyl)phenyl)carbamoyl)-6-(4-((N,1,2-trimethyl-1H-benzo[d]imidazole)-5-sulfonamido)phenyl)cyclohexane-1-carboxylic acid] | 0.113 | 1.58 | 39.8 | 39.8 | 4.47
Cc1nc2cc(S(=O)(=O)N(C)c3ccc([C@H]4C[C@@H](OC[C@H]5COCCO5)C[C@@H](C(=O)Nc5ccc(C(F)(F)F)cc5F)[C@@H]4C(=O)O)cc3)ccc2n1C (relative stereo) [Example 327, (1R*,2R*,4R*,6S*)-4-(((R)-1,4-dioxan-2-yl)methoxy)-2-((2-fluoro-4-(trifluoromethyl)phenyl)carbamoyl)-6-(4-((N,1,2-trimethyl-1H-benzo[d]imidazole)-5-sulfonamido)phenyl)cyclohexane-1-carboxylic acid] | 0.296 | 2.51 | 200 | 200 | 58.9
Cc1nc2cc(S(=O)(=O)N(C)c3ccc([C@@H]4C[C@H](N5CCC(F)(F)CC5)C[C@H](C(=O)Nc5ccc(C(F)(F)F)cc5F)[C@H]4C(=O)O)cc3)ccc2n1C (stereo in doubt) [Example 343] | 0.237 | 100 | 5010 | 5010 | 1170

More lines, main results first:

fraction unbound at 4 h, 1 µM [1] | IC50 [3] [nM] | SMILES | CC50 [2, 5] [nM] | CC50 [2, 6] [nM] | CC50 [4] [nM]
0.0589 | 7.94 | Cc1nc2cc(S(=O)(=O)N(C)c3ccc([C@H]4C[C@H](N5CC[C@@H](F)C5)C[C@@H](C(=O)Nc5ccc(C(F)(F)F)cc5F)[C@@H]4C(=O)O)cc3)ccc2n1C (stereo in doubt) [Example 383, rel-(1R*,2R*,4S*,6S*)-2-((2-fluoro-4-(trifluoromethyl)phenyl)carbamoyl)-4-((R)-3-fluoropyrrolidin-1-yl)-6-(4-((N,1,2-trimethyl-1H-benzo[d]imidazole)-5-sulfonamido)phenyl)cyclohexane-1-carboxylic acid] | 7940 | 7940 | 468
0.0195 | 3.16 | CN(C)c1nc2cc(S(=O)(=O)N(C)c3ccc([C@H]4CCC[C@@H](C(=O)Nc5ccc(C(F)(F)F)cc5F)[C@@H]4C(=O)O)cc3)ccc2n1C [Example 121, (1R,2S,6R)-2-(4-((2-(dimethylamino)-N, 1-dimethyl-1H-benzo[d]imidazole)-5-sulfonamido)phenyl)-6-((2-fluoro-4-(trifluoromethyl)phenyl)carbamoyl)cyclohexane-1-carboxylic acid] | 316 | 316 | 6.17
0.0289 | 1.58 | Cc1nc2cc(S(=O)(=O)N(C)c3ccc([C@@H]4CCC[C@H](COc5ccc(C(F)(F)F)cc5)[C@H]4C(=O)O)cc3)cc([C@H]3CCCNC3)c2n1C (stereo in doubt) [Example 208, rel-(1R,2R,6S)-2-((4-(trifluoromethyl)phenoxy)methyl)-6-(4-((N,1,2-trimethyl-7-((R)-piperidin-3-yl)-1H-benzo[d]imidazole)-5-sulfonamido)phenyl)cyclohexane-1-carboxylic acid, hydrochloride] | 1260 | 1260 | 36.3
0.141 | 1.26 | CN(c1ccc([C@H]2CCC[C@@H](C(=O)Nc3ccc(C(F)(F)F)cc3F)[C@@H]2C(=O)O)cc1)S(=O)(=O)c1ccc2c(c1)nc(N)n2C [Example 266, (1R,2S,6R)-2-(4-((2-amino-N,1-dimethyl-1H-benzo[d]imidazole)-5-sulfonamido)phenyl)-6-((2-fluoro-4-(trifluoromethyl)phenyl)carbamoyl)cyclohexane-1-carboxylic acid] | 398 | 398 | 56.2
0.058 | 6.31 | Cc1nc2cc(S(=O)(=O)N(C)c3ccc([C@H]4CCC[C@@H](C(=O)Nc5ccc(C(F)(F)F)cc5F)[C@@H]4C(=O)O)cc3)cc(F)c2n1C [Example 126, (1R,2R,6S)-2-((2-fluoro-4-(trifluoromethyl)phenyl)carbamoyl)-6-(4-((7-fluoro-N, 1,2-trimethyl-1H-benzo[d]imidazole)-5-sulfonamido)phenyl)cyclohexane-1-carboxylic acid] | 631 | 631 | 36.3
0.0658 | 3.16 | CN(c1ccc([C@H]2CCC[C@@H](C(=O)Nc3ccc(C(F)(F)F)cc3F)[C@@H]2C(=O)O)cc1)S(=O)(=O)c1ccc2c(c1)nc(Cl)n2C [Example 365, (1R,2S,6R)-2-(4-((2-chloro-N,1-dimethyl-1H-benzo[d]imidazole)-5-sulfonamido)phenyl)-6-((2-fluoro-4-(trifluoromethyl)phenyl)carbamoyl)cyclohexane-1-carboxylic acid] | 398 | 398 | 26.3
0.0349 | 12.6 | CC(C)c1nc2cc(S(=O)(=O)N(C)c3ccc([C@H]4CCC[C@@H](C(=O)Nc5ccc(C(F)(F)F)cc5F)[C@@H]4C(=O)O)cc3)ccc2n1C [Example 132, (1R,2R,6S)-2-((2-fluoro-4-(trifluoromethyl)phenyl)carbamoyl)-6-(4-((2-isopropyl-N, 1-dimethyl-1H-benzo[d]imidazole)-5-sulfonamido)phenyl)cyclohexane-1-carboxylic acid] | 631 | 631 | 21.9
